Activity calls are given as the source filed them. No stated cut-off is given here; in the data, actives have a measured IC50 and inactives only a lower limit.
Columns and labels:
Format in all cases: functional
Caspase-3 = biological target: T1, Caspase-3 (Homo sapiens, UniProt P42574); test: caspase-3 inhibitors as off-family protease, SAR follow-up, selectivity assay for SENP protease inhibitor project, biochemical, luminescence, set 2 (AID 588599)
T1 sequence (P42574 whole entry): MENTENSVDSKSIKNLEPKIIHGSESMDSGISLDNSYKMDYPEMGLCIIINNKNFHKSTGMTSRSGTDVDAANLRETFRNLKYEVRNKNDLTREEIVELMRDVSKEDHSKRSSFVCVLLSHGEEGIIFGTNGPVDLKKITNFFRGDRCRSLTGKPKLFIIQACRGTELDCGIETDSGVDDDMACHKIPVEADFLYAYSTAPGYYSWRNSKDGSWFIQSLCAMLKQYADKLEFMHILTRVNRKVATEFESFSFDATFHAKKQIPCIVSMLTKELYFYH

[1] = biological target: T2, Sentrin-specific protease 8 (Homo sapiens, UniProt Q96LD8); test: SENP8 protease inhibitors, SAR follow-up, biochemical, luminescence, set 2 (AID 588601)
T2 sequence (Q96LD8 whole entry): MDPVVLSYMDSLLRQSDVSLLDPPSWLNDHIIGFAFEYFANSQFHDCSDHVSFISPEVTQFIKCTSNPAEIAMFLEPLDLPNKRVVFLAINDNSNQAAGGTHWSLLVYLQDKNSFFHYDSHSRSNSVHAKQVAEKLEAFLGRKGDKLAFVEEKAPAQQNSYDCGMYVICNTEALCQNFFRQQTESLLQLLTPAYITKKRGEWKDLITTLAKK

[2] = biological target: T3, Sentrin-specific protease 7 (Homo sapiens, UniProt Q9BQF6); test: SENP7 protease inhibitors, SAR follow-up, biochemical, luminescence, set 2 (AID 588600)
T3 sequence (Q9BQF6 whole entry): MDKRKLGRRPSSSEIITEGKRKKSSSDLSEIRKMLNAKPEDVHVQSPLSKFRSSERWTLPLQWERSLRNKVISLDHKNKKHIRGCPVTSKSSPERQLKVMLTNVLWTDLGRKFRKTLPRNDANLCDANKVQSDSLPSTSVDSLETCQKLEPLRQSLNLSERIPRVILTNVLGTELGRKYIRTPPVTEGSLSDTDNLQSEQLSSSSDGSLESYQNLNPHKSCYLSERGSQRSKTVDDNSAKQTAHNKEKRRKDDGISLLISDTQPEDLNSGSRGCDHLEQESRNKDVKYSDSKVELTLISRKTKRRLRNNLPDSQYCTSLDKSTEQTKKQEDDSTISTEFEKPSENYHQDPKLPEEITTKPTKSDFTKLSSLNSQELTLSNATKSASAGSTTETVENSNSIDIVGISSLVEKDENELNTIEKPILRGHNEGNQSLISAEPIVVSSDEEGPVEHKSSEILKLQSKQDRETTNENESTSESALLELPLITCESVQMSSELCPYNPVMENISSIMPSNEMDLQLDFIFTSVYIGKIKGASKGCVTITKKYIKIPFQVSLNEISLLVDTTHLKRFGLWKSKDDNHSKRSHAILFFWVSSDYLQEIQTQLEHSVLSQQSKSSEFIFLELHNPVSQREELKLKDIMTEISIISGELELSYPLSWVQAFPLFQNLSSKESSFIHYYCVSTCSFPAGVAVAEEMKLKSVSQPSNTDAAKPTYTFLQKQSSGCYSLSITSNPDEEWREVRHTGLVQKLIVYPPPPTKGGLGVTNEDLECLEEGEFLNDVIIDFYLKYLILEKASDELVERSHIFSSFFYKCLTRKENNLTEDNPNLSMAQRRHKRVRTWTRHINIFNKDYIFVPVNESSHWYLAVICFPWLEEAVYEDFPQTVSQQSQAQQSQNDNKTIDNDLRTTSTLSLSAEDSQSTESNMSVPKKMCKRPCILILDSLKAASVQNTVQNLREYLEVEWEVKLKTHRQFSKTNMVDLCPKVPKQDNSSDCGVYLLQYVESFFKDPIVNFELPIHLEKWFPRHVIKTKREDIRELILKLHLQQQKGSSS

[3] = biological target: T4, Sentrin-specific protease 6 (Homo sapiens, UniProt Q9GZR1); test: SENP6 protease inhibitors, SAR follow-up, biochemical, luminescence, set 2 (AID 588598)
T4 sequence (Q9GZR1 whole entry): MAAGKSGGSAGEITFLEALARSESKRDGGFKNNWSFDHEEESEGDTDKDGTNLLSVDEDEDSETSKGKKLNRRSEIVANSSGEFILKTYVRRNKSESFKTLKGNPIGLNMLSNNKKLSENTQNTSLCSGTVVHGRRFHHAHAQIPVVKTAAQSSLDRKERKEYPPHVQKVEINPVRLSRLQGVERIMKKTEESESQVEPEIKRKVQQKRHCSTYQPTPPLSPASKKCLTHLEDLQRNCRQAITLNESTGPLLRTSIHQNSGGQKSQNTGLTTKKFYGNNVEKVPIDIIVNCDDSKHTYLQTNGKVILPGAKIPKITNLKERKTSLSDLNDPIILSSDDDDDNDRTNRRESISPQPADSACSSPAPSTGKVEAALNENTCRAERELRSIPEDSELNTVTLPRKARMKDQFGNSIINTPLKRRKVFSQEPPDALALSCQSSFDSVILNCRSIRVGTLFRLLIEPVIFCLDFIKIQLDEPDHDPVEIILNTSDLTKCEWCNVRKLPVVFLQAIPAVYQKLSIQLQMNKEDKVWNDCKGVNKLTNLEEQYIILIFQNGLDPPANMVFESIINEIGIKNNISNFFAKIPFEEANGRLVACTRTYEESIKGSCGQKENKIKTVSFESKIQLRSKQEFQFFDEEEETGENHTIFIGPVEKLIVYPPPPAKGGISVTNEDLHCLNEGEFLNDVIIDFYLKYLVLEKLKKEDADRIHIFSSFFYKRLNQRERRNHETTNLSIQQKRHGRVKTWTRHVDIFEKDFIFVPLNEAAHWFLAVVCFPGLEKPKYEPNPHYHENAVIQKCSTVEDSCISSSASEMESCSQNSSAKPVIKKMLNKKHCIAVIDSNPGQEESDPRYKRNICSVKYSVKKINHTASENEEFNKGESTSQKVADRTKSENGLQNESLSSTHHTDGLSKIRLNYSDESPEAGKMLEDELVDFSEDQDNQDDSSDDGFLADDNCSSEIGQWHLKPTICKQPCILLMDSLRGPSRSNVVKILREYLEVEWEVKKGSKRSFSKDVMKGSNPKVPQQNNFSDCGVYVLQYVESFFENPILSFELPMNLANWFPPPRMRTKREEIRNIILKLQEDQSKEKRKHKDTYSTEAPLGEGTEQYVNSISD

Measured: IC50

CCCN(CCC)S(=O)(=O)c1ccc2[nH]cc(/C=N/NC(=S)Nc3ccc(F)c(Cl)c3)c2c1
inactive: Caspase-3 > 99 µM | [1] > 99 µM | [2] > 99 µM | [3] > 99 µM
